Laboratory results published in the OPERA property sets (Mansouri et al. 2018).

Row | Compound | logP
1 | O=C(Nc1ccc(Cl)cc1[N+](=O)[O-])c1ccccc1O | 4.09
2 | O=C(Nc1ccccc1[N+](=O)[O-])c1ccccc1O | 2.87
3 | O=C(Nc1ccc(Cl)cc1)c1ccccc1O | 4.5
4 | O=C(Nc1ccccc1)c1cc(Cl)cc(Cl)c1O | 4.01
5 | O=C(Nc1ccccc1)c1cc([N+](=O)[O-])ccc1O | 3.66
6 | O=C(Nc1ccc(F)cc1F)c1cc(Cl)cc(Cl)c1O | 4.55
7 | O=C(Nc1ccc(Cl)cc1)c1cc(Br)ccc1O | 5.02
8 | Cc1cc([N+](=O)[O-])ccc1NC(=O)c1cc(Cl)cc(Cl)c1O | 4.51
9 | O=C(Nc1ccc(Br)cc1)c1ccccc1O | 4.51

Next, values leading:

Row | logP | Compound
10 | 5.15 | O=C(Nc1ccc(Cl)cc1)c1cc(Cl)cc(Cl)c1O
11 | 4.99 | O=C(Nc1ccc(F)cc1F)c1cc(Br)cc(Br)c1O
12 | 5.49 | O=C(Nc1ccc(Cl)cc1Cl)c1ccccc1O
13 | 5.15 | Cc1cc(Br)ccc1NC(=O)c1cc(F)ccc1O
14 | 5.08 | O=C(Nc1ccc(Cl)cc1[N+](=O)[O-])c1cc(Cl)cc(Cl)c1O
15 | 4.35 | O=C(Nc1ccccc1Cl)c1ccccc1O
16 | 4.89 | Cc1cc(Cl)ccc1NC(=O)c1cc(F)ccc1O
17 | 4.21 | Cc1ccccc1NC(=O)c1cc(Cl)ccc1O
18 | 4.05 | O=C(Nc1ccccc1)c1cc(Cl)ccc1O
19 | 5.18 | Cc1cc(Cl)ccc1NC(=O)c1ccccc1O
20 | 4.76 | O=C(Nc1ccc(F)cc1)c1cc(Cl)cc(Cl)c1O
21 | 5.05 | O=C(Nc1ccc(Cl)cc1[N+](=O)[O-])c1cc(Br)cc(Br)c1O
